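Protocol summary: plate cells (96-well), add compound at 5 concentrations, incubate 48 h, interpolate endpoints linearly. The concentration for 50% growth inhibition is given as GI50. The concentration for full growth arrest is given as TGI.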
What was measured:
Experiment in all cases: NCI-60 cell line screen, 48 h
NCI-H23 lung = tested on: NCI-H23 lung
NCI-H460 lung = tested on: NCI-H460 lung
NCI-H522 lung = tested on: NCI-H522 lung
NCI/ADR-RES ovarian = tested on: NCI/ADR-RES ovarian
OVCAR-3 ovarian = tested on: OVCAR-3 ovarian
OVCAR-4 ovarian = tested on: OVCAR-4 ovarian
OVCAR-5 ovarian = tested on: OVCAR-5 ovarian
OVCAR-8 ovarian = tested on: OVCAR-8 ovarian
PC-3 prostate = tested on: PC-3 prostate
RPMI-8226 leukemia = tested on: RPMI-8226 leukemia
RXF 393 renal = tested on: RXF 393 renal
SF-268 CNS = tested on: SF-268 CNS
SF-295 CNS = tested on: SF-295 CNS
SF-539 CNS = tested on: SF-539 CNS
SK-MEL-2 melanoma = tested on: SK-MEL-2 melanoma
SK-MEL-28 melanoma = tested on: SK-MEL-28 melanoma
SK-MEL-5 melanoma = tested on: SK-MEL-5 melanoma
SK-OV-3 ovarian = tested on: SK-OV-3 ovarian
SN12C renal = tested on: SN12C renal
SNB-19 CNS = tested on: SNB-19 CNS
SNB-75 CNS = tested on: SNB-75 CNS
SR leukemia = tested on: SR leukemia
SW-620 colon = tested on: SW-620 colon
T-47D breast = tested on: T-47D breast
TK-10 renal = tested on: TK-10 renal
U251 CNS = tested on: U251 CNS
UACC-257 melanoma = tested on: UACC-257 melanoma
UACC-62 melanoma = tested on: UACC-62 melanoma
UO-31 renal = tested on: UO-31 renal

## O=C1C(Cl)=C(N2CCOCC2)C(=O)c2ccccc21
NCI-H23 lung
  TGI: 20.9 µM
NCI-H460 lung
  GI50: 20.2 µM
  TGI: 42.8 µM
NCI-H522 lung
  GI50: 1.67 µM
  TGI: 3.23 µM
NCI/ADR-RES ovarian
  GI50: 3.11 µM
  TGI: 13 µM
OVCAR-3 ovarian
  GI50: 2.04 µM
  TGI: 3.58 µM
OVCAR-4 ovarian
  GI50: 1.61 µM
  TGI: 3.02 µM
OVCAR-5 ovarian
  GI50: 20.7 µM
  TGI: 36.4 µM
OVCAR-8 ovarian
  GI50: 1.6 µM
  TGI: 3 µM
PC-3 prostate
  GI50: 9.38 µM
  TGI: 23.7 µM
RPMI-8226 leukemia
  GI50: 2.63 µM
  TGI: 7.87 µM
RXF 393 renal
  GI50: 1.85 µM
  TGI: 3.26 µM
SF-268 CNS
  GI50: 4.88 µM
  TGI: 16.8 µM
SF-295 CNS
  GI50: 19.2 µM
  TGI: 36.7 µM
SF-539 CNS
  GI50: 20.1 µM
  TGI: 34.6 µM
SK-MEL-2 melanoma
  GI50: 3.82 µM
  TGI: 11.6 µM
SK-MEL-28 melanoma
  GI50: 2.69 µM
  TGI: 6.32 µM
SK-MEL-5 melanoma
  GI50: 6.82 µM
  TGI: 19.4 µM
SK-OV-3 ovarian
  GI50: 18.3 µM
  TGI: 32.2 µM
SN12C renal
  GI50: 10.7 µM
  TGI: 23.1 µM
SNB-19 CNS
  GI50: 16.1 µM
  TGI: 30.1 µM
SNB-75 CNS
  GI50: 14.2 µM
  TGI: 27.8 µM
SR leukemia
  GI50: 2.77 µM
  TGI: 7.87 µM
SW-620 colon
  GI50: 1.76 µM
  TGI: 3.51 µM
T-47D breast
  GI50: 2.31 µM
  TGI: 5.13 µM
TK-10 renal
  GI50: 16.7 µM
  TGI: 30.4 µM
U251 CNS
  GI50: 5.07 µM
  TGI: 17.8 µM
UACC-257 melanoma
  GI50: 1.62 µM
  TGI: 3.03 µM
UACC-62 melanoma
  GI50: 3.06 µM
  TGI: 10.7 µM
UO-31 renal
  GI50: 1.64 µM
  TGI: 3.28 µM

Source: PubChem BioAssay (NCI)
